This is an account of results in paper PMC7397155, “Comparison of Chemotherapeutic Activities of Rhodamine-Based GUMBOS and NanoGUMBOS” (Molecules, 2020).

Each structure is given as a SMILES string. Bounds are passed on as bounds.

What is called IC50 is the point on the concentration scale where inhibition reaches its midpoint. One may read the thermodynamic solubility as the concentration in solution at equilibrium with solid.

The test system of one series is MDA-MB-231 cancer cells. Briefly: MTT cell viability assay, MDA-MB-231 breast cancer cells. The format is cell-based, human. The conditions noted are these: 48 h incubation. Here is the method:
(§1) Hormone-independent breast adenocarcinoma (MDA-MB-231), hormone-dependent breast adenocarcinoma (MCF7), human pancreatic carcinoma (Mia-Paca), and normal human fibroblast cell lines were purchased from American […] Culture Collection (ATCC, Manassas, VA, USA). Cell lines were cultured to 90% confluence using ATTC guidelines for cell culture prior to experimentation.
A 96 well plate was seeded with 5000 cells/well and incubated for 24 h to allow attachment. […] These compounds were then incubated into the cells for 48 h, followed by MTT assay to determine cell viability. Firstly, 15 µL of the MTT dye solution was incubated in the cells for 3 h. The MTT dye reacts with NADPH present in live cells to form an insoluble purple formazan product. Subsequently, 100 µL of a stop solution was added to solubilize this product and halt the enzymatic reaction between NADPH and MTT. Cells were then incubated with stop solution for 1 h. The absorbance of the formazan was then measured at 570 nm using a microplate spectrophotometer. Cell viability is reported as the ratio between experimental groups and a control normalized to 100%. All measurements were performed in triplicate measurements to obtain standard error, and the reported cell viability is the average of these measurements. The IC50 was calculated using the formula:
(§2) ((0.5−(f(a))×(b−a)+(f(b)−f(a))×a))/(f(b)−f(a)) where a is the concentration where the cell viability is above 50%, b is the concentration where the cell viability is below 50%, and f(a) and f(b) are respectively the cell viability percentages *0.01 at concentration a and b respectively.

Another series deals with MiaPaca cancer cells. Nature of the series: MTT cell viability assay, MiaPaca pancreatic cancer cells. Set-up: species or system human. The settings on record: 48 h incubation. The method, then: as §1
(§3) A 96 well plate was seeded with 5000 cells/well and incubated for 24 h to allow attachment. Serial dilution from 100 µM to 0 µM was performed for each compound. These compounds were then incubated into the cells for 48 h, followed by MTT assay to determine cell viability. Firstly, 15 µL of the MTT dye solution was incubated in the cells for 3 h. The MTT dye reacts with NADPH present in live cells to form an insoluble purple formazan product. Subsequently, 100 µL of a stop solution was added to solubilize this product and halt the enzymatic reaction between NADPH and MTT. Cells were then incubated with stop solution for 1 h. The absorbance of the formazan was then measured at 570 nm using a microplate spectrophotometer. Cell viability is reported as the ratio between experimental groups and a control normalized to 100%. All measurements were performed in triplicate measurements to obtain standard error, and the reported cell viability is the average of these measurements. The IC50 was calculated using the formula:
as §2
A general note: Tetrazolium dyes change colour on reduction, which living cells bring about.

A further series deals with MCF7 cancer cells. Briefly: MTT cell viability assay, MCF7 breast cancer cells. Set-up: species or system human. The conditions noted are these: 48 h incubation. The method, then: as §1, §3, §2
The next series concerns Hs578Bst normal cells. Nature of the series: MTT cell viability assay, Hs578Bst normal breast cells. The settings on record: for IC50: RB and R110 GUMBOS and parent dyes, normal breast cells, 48 h incubation, MTT. The format is cell-based, human.
Series [1] can be described thus: Octanol buffer partition coefficient. In kind it is physicochemical. The conditions noted are these: 1-octanol / pH 7.4 phosphate-citric acid buffer, 48 h stirring. Here is the method: Into a 20 mL vial, 1-Octanol is mixed with a pH 7.4 phosphate-citric acid buffer and stirred overnight. The two layers were separated and then a calibration curve was generated for each compound in 1-octanol using various concentrations. The phosphate-citric acid buffer was then added to one of the concentrations (Ci) and this mixture was stirred for 48 h. Subsequently, absorbance in the octanol layer was measured and the concentration (Co) calculated using the calibration curves. Later, the equation Ci − C0 = Cw was used to calculate the aqueous concentration (Cw). The octanol–water partition coefficient was then calculated using the equation Kow = […]/Cw.

The nature of series [2]: Zeta potential of nanoGUMBOS. The settings on record: nanoGUMBOS at physiological pH (7.4). In kind it is physicochemical. The text has this:
Following examination of the hydrophobicity of these GUMBOS, nanoGUMBOS were synthesized using a simple reprecipitaiton method as described in the experimental section. TEM images in Figure 2 are a display of spherical nanoparticles with diameters of ~100 nm for both R123 and SNAFR.

The next series is described as follows: Water solubility study. The format is physicochemical. The conditions noted are these: water solubility at physiological pH. Here is the method:
Approximately fifty milliliters of water were added to three milligrams of GUMBOS. Absorbance measurements were then acquired over time until the absorbance reached a plateau. A calibration curve for an aqueous solution of GUMBOS was then generated at a soluble concentration, and the slope of the curve was used to calculate the solubility concentration. The solubility constant (Ksp) was then calculated using this concentration.

The mark [3] stands for this setting: RB and R110 GUMBOS and parent dyes.
The mark [4] stands for this setting: R123- and SNAFR-5-based nanoGUMBOS and parent dyes.
[5] abbreviates: Homo sapiens, MDA-MB-231, 48 h, RB and R110 GUMBOS and parent dyes.

For the molecule `COC(=O)c1ccccc1-c1c2ccc(=N)cc-2oc2cc(N)ccc12` [[R123][Cl], rhodamine 123, reference compound], the IC50 was 24.3 ± 2.2 µM in the series with MDA-MB-231 cancer cells (Homo sapiens, MDA-MB-231, R123- and SNAFR-5-based nanoGUMBOS and parent dyes); 3.1 ± 1.1 µM with MiaPaca cancer cells (Homo sapiens, MIA PaCa-2, R123- and SNAFR-5-based nanoGUMBOS and parent dyes); above 100 µM in the series with MCF7 cancer cells (Homo sapiens, MCF7, R123- and SNAFR-5-based nanoGUMBOS and parent dyes). In addition, in the series on Hs578Bst normal cells (result in words, Figure 6), the “Toxicity towards Hs578Bst normal cells” value was “slight toxicity towards normal cells”. In addition, in series [1], the “Log Kow” value was determined as 0.25.
As to `CCN(CC)c1ccc2c(-c3ccccc3C(=O)O)c3ccc(=[N+](CC)CC)cc-3oc2c1.c1ccc([B-](c2ccccc2)(c2ccccc2)c2ccccc2)cc1` [[RB][TPB]], the IC50 in the series on MDA-MB-231 cancer cells (setting [3]) came to 77.5 ± 5.7 µM; in the series on Hs578Bst normal cells, 533.7 ± 3.3 µM. Also, the “Log Kow” value in series [1] is given as 1.6.
As to `CCN(CC)c1ccc2c(-c3ccccc3C(=O)O)c3ccc(=[N+](CC)CC)cc-3oc2c1.O=S(=O)([N-]S(=O)(=O)C(F)(F)C(F)(F)F)C(F)(F)C(F)(F)F` [[RB][BETI]], the IC50 with MDA-MB-231 cancer cells (setting [3]) worked out at 89.5 ± 3.4 µM; in the series with Hs578Bst normal cells it was 540 ± 6.2 µM. In series [1], the “Log Kow” value is reported as 1.25.
Turning to `COC(=O)c1ccccc1-c1c2ccc(=[NH2+])cc-2oc2cc(N)ccc12.c1ccc([B-](c2ccccc2)(c2ccccc2)c2ccccc2)cc1` [[R123][TPB]], the figures for the IC50 in the series with MDA-MB-231 cancer cells (setting [4]), in the series with MiaPaca cancer cells (setting [4]) and in the series on MCF7 cancer cells (setting [4]) were 20.6 ± 3.5 µM, 2.5 ± 0.9 µM and above 100 µM, respectively. For the same molecule, the “Log Kow” value in series [1] was determined as 0.8. For the same molecule, the “Zeta Potential” value in series [2] is reported as −16.5 ± 1.4 mV.
For `CCN(CC)c1ccc2c(-c3ccccc3C(=O)O)c3ccc(=[N+](CC)CC)cc-3oc2c1` [[RB][Cl], Rhodamine B chloride, reference compound], the IC50 is 291 ± 1.2 µM in the series on MDA-MB-231 cancer cells (setting [5]) and 500 ± 5.2 µM in the series with Hs578Bst normal cells (Homo sapiens, Hs578Bst). Further, the “Log Kow” value in series [1] came out at 1.1.
For the molecule `N=c1ccc2c(-c3ccccc3C(=O)O)c3ccc(N)cc3oc-2c1` [[R110][Cl], rhodamine 110 chloride, reference compound], the 50% inhibitory concentration (IC50) stood at 781 µM in the series on MDA-MB-231 cancer cells (setting [5]); 791.2 ± 2.7 µM with MDA-MB-231 cancer cells (setting [3]); 836.1 ± 5.3 µM in the series on Hs578Bst normal cells (Homo sapiens, Hs578Bst). Further, in series [1], the “Log Kow” value is 0.22. In addition, the thermodynamic solubility in “Water solubility study” was above 700 µM.
For the molecule `COC(=O)c1ccccc1-c1c2ccc(N)cc2[o+]c2cc(N)ccc12.O=S(=O)([N-]S(=O)(=O)C(F)(F)C(F)(F)F)C(F)(F)C(F)(F)F` [[R123][BETI]], the 50% inhibitory concentration (IC50) with MDA-MB-231 cancer cells (setting [4]) is 17.4 ± 3.7 µM; in the series on MiaPaca cancer cells (setting [4]) it was 1.6 ± 0.7 µM; in the series on MCF7 cancer cells (setting [4]) it was above 100 µM. Besides, the “Log Kow” value in series [1] is on record as 1.1. In addition, the “Zeta Potential” value in series [2] is reported as −16.8 ± 1.1 mV.
